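Five compound concentrations were applied to cells in 96-well plates for 48 hours; endpoints were derived by simple linear interpolation of the resulting dose-response curve. At the GI50, growth is halved. TGI: total growth inhibition.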 Where a SMILES comes first, the peptide text is derived from it. [ ]: non-standard residue; d: D form. The star is where a group is joined. Phe(4-NO2) = N[CH](Cc1ccc([N+](=O)[O-])cc1)C(=O)O; Boc = CC(C)(C)OC(=O)*
How the values were obtained:
Assay in all cases: NCI-60 cell line screen, 48 h
SF-539 CNS = test system: SF-539 CNS
SK-MEL-28 melanoma = test system: SK-MEL-28 melanoma
MDA-N = test system: MDA-N
HOP-62 NSCLC = test system: HOP-62 NSCLC
COLO 205 colon = test system: COLO 205 colon
SNB-19 CNS = test system: SNB-19 CNS
SR leukemia = test system: SR leukemia
HT29 colon = test system: HT29 colon
UACC-257 melanoma = test system: UACC-257 melanoma
UACC-62 melanoma = test system: UACC-62 melanoma
MCF7 breast = test system: MCF7 breast

SMILES	TGI (SF-539 CNS) [µM]	TGI (SK-MEL-28 melanoma) [µM]	TGI (MDA-N) [µM]	TGI (HOP-62 NSCLC) [µM]	TGI (COLO 205 colon) [µM]	TGI (SNB-19 CNS) [µM]	TGI (SR leukemia) [µM]	TGI (HT29 colon) [µM]	TGI (UACC-257 melanoma) [µM]	TGI (UACC-62 melanoma) [µM]	TGI (MCF7 breast) [µM]	GI50 (SK-MEL-28 melanoma) [µM]	GI50 (MDA-N) [µM]	GI50 (COLO 205 colon) [µM]	GI50 (SNB-19 CNS) [µM]	GI50 (SR leukemia) [µM]	GI50 (HT29 colon) [µM]	GI50 (UACC-257 melanoma) [µM]	GI50 (UACC-62 melanoma) [µM]	GI50 (MCF7 breast) [µM]
CO/N=C(\C)c1cccc(Nc2c3ccccc3nc3occc23)c1	21.5	16.5	15.8	20.2	17.6	45.5	16.4	16.7	25.6	22.5	28.6									
CC1=C(C(=O)Nc2ccccc2)C2(CCCCC2)C(C#N)=C(SCC(=O)Nc2ccc(Br)cc2)N1	32.9	> 26.5	17.2	32.6	4.53	> 32.7	6.11	8.53	> 43.4	> 87.3	> 47.9									
CCCCn1c2c(n(CCCC)c1=S)-c1c(n(CCCC)c(=S)n1CCCC)SSc1c(n(CCCC)c(=S)n1CCCC)-c1c(n(CCCC)c(=S)n1CCCC)SSc1c(n(CCCC)c(=S)n1CCCC)-c1c(n(CCCC)c(=S)n1CCCC)SS2	> 50	> 50	> 46	> 50	14.7	> 50	> 50	> 46.6	> 50	20.3	48									
CC(C)/C(Cl)=N\OC(=O)Nc1cccc(Cl)c1	36.8	35.4	28.6	> 86.1	4.61	> 100	7.22	35.1	26.8	46.3	32									
CCCCCCCCCCCCC(O)[C@H]1CC[C@H](C(O)CCCCCC(=O)CCCCC2CC(C(C)=O)C(=O)O2)O1 (stereo partly specified)	35.6	66.2	23.2	26.6	> 57.8	73.9	> 38.1	> 53.5	19.1	21.6	> 51.6	4.06	7.67	2.16	4.56	1.76	2.96	1.3	3.84	1.38
Cc1ccc(S(=O)(=O)NNCNC(=O)c2ccccc2)cc1	> 100	> 100	> 100	> 100	> 100	> 100	33.1	> 100	> 100	> 100	> 100									
CC(C)(C)c1cc(O)ccc1O	> 100	> 100	> 100	> 100	> 100	> 100	26.6	> 100	> 21.7	> 100	> 100									
C(=C\c1ccco1)/c1cccc(/C=C/c2ccco2)n1	> 50	> 50	> 50	> 50	> 50	> 50	> 50	> 50	> 50	> 50	> 50									
CNC(=O)CCC(NC(=O)OC(C)(C)C)C(=O)NC(Cc1ccc([N+](=O)[O-])cc1)C(=O)NCC(=O)NC (stereo unspecified) (Boc-Glu(NHMe)-[Phe(4-NO2)]-Gly-NHMe; configuration not given here)	> 100	> 100	> 100	> 100	> 100	> 100	> 100	> 100		> 100	> 100									
Cc1cc(=O)oc2c(CNC(Cc3ccccc3)C(=O)O)c(O)ccc12 (stereo unspecified)	> 100	> 100	> 100	> 100	> 100	> 100	> 100	> 100	> 100	> 100	> 100									
N#C/C(N)=C(\C#N)NC(=O)C(=O)N/C(C#N)=C(\N)C#N	> 100	> 100	> 100	> 100	> 100	> 100	> 100	> 100	> 100	> 100	> 100									
N[C@H]1CCCC[C@@H]1N1C(=O)c2ccccc2C1(O)c1ccc(Cl)cc1 (stereo partly specified)	25	10.4	25	29.6	12.6	27.6	29.9	15.6	11.7	25.9	27.5									
Cc1ccnc(NC(NC(=O)c2ccccc2)(C(F)(F)F)C(F)(F)F)c1	> 100	> 100	> 100	> 100	> 100	> 100	> 100	> 100	> 100	> 100	> 100									
CCOC(=O)c1ccc(NCC#CCN2CCCCC2)cc1	> 100	> 100	> 100	> 100	> 100	> 100	> 100	> 100		> 100	> 100									
